The source of these data is patent publication US10030089B2, “Sugar free, statistical copolymers made from at least three monomers” (REGENTS OF THE UNIVERSITY OF MINNESOTA, priority 2013, dated 2018).

SMILES strings stand for the structures.

A short description of the data set: Phenytoin dissolution control. In kind it is physicochemical. The method, then: Probucol and phenytoin concentrations were quantified using a Agilent 1260 Infinity Quaternary HPLC equipped. The HPLC consisted of a reversed-phase EC-C18 column (Poroshell 120, 4.6×50 mm, 2.7 μm, Agilent, USA). The mobile phase was acetonitrile:water 96:4 for probucol and acetonitrile:water 40:60 for phenytoin, and the flow rate was 1.0 mL/min. A 10 μL aliquot of sample was injected, and the column effluent was detected at 241 nm for probucol (eluted at 2.90 min) and 225 nm for phenytoin (eluted at 1.40 min) with a UV detector (1260 Infinity Multiple Wavelength Detector, Agilent). The standard curve linearity was verified from 0.1 to 1000 μg/mL with an r^2 value of at least 0.999.

On to `O=C1NC(=O)C(c2ccccc2)(c2ccccc2)N1` [Phenytoin, phenytoin], for which the Concentration (Time (s) 0) was 0 ng/mL; the Concentration (Time (s) 4) amounted to 38000 ng/mL; the Concentration (Time (s) 10) worked out at 46000 ng/mL; the Concentration (Time (s) 20) came to 45000 ng/mL; the Concentration (Time (s) 40) came out at 48000 ng/mL; the Concentration (Time (s) 90) was determined as 51000 ng/mL. Moreover, the Concentration (Time (s) 180) is 45000 ng/mL and the Concentration (Time (s) 360) is 48000 ng/mL.
